ChEMBL document CHEMBL1148974, “New eudesmane derivatives from Melampodium camphoratum from the Suriname rainforest” (J Nat Prod, 2004)
In brackets after ≈: the same amount, converted by molar mass.

What follows are compounds tested on Plasmodium falciparum (assay: Antimalarial activity as reduced heme degradation in Plasmodium falciparum infected human erythrocytes).
Type: functional, organism-based

`C=C1CCC[C@]2(C)CC[C@@H](C(C)C)[C@H](OC(=O)/C=C/c3ccc(OC(=O)CCCCCCCCCCCCCCCCC)cc3)[C@@H]12` and `C=C1CCC[C@]2(C)CC[C@@H](C(C)C)[C@H](OC(=O)/C=C/c3ccc(OC(=O)CCCCCCCCCCCCCCC)cc3)[C@@H]12` are within 1.5-fold of each other in DC50: 110 µg/mL (≈ 173 µM) for the first, 75 µg/mL (≈ 124 µM) for the second.

Going from `C=C1CCC[C@]2(C)CC[C@@H](C(C)C)[C@H](OC(=O)/C=C/c3ccc(OC(=O)CCCCCCC/C=C\CCCCCC)cc3)[C@@H]12` to `C=C1CCC[C@]2(C)CC[C@@H](C(C)C)[C@H](OC(=O)/C=C\c3ccc(OC(C)=O)cc3)[C@@H]12`, the DC50 rises from 52 µg/mL (≈ 86 µM) to over 200 µg/mL.

`C=C1CCC[C@]2(C)CC[C@@H](C(C)C)[C@H](OC(=O)/C=C/c3ccc(O)cc3)[C@@H]12` and `C=C1CCC[C@]2(C)CC[C@@H](C(C)C)[C@H](OC(=O)/C=C\c3ccc(O)cc3)[C@@H]12` cannot be ordered by DC50: over 200 µg/mL for the first, over 200 µg/mL for the second.

Compared with `C=C1CCC[C@]2(C)CC[C@@H](C(C)C)[C@H](OC(=O)/C=C/c3ccc(OC)cc3)[C@@H]12`, `C=C[C@H]1CN2CC[C@H]1C[C@H]2[C@H](O)c1ccnc2ccc(OC)cc12` [QUININE] is 37-fold lower in DC50: 48 µg/mL (≈ 125 µM) for the first, 1.3 µg/mL (≈ 4.01 µM) for the second.
